Experimental data reported in publication PMC9571594, “Development of Semisynthetic Apoptosis-Inducing Agents Based on Natural Phenolic Acids Scaffold: Design, Synthesis and In-Vitro Biological Evaluation” (Molecules, 2022).
Like-named read-outs stand apart in the source and are kept apart here.

Columns and labels:
[1] = test system: HepG2 cells; test: MTT cell viability assay, HepG2; format: cell-based, human
Description: (§1) MCF-7 cells (Human breast adenocarcinoma), HepG2 (human hepatocellular carcinoma), A549 (human lung adenocarcinoma), Caco-2 (colon carcinoma), PANC-1 (human pancreatic cancer), and Vero cells (derived from normal kidney cells) were supplied by (Holding Company for Biological Products and Vaccines VACSERA; Giza, Egypt). The cells were cultured in PRMI 1640 medium (Lonza, Switzerland) supplemented with 10% fetal bovine serum (Gibco), 1% penicillin and 1% streptomycin (Sigma Aldrich, Saint Louis, MO, USA) at 37 °C under an atmosphere of 5% CO2 and 95% air.
(§2) The effect of parent compounds and their derivatives were assessed by (3-(4,5-dimethylthiazol-2-yl)-2,5diphenyl-tetrazolium bromide) MTT assay. […] After a merged sheet of cells developed, the growth media was decanted from the 96-well microtiter and refilled with different concentrations of compounds (µg/mL), and the plate was incubated at 37 °C for 48 h to minimize exposure to the dissolving agent (Supporting Information).
(§3) MTT solution (BIO BASIC CANADA INC) was prepared [5 mg/mL in phosphate buffered saline (PBS)], added to each well and incubated for 4 h, then after removing the media, 200 μL of DMSO was added to each well to solubilize the formazan crystals and the optical density of the formazan product was measured at 560 nm using microplate reader (mindray, MR-96A). The results were calculated as the mean of the three independent experiments. […]
(§4) Determination of sample cytotoxicity on cells (MTT protocol) […]
(§5) well) and incubated at 37°C for 24 hours to develop a complete monolayer sheet.
(§6) 2- Growth medium was decanted from 96 well micro titer plates after confluent sheet of cells were formed, cell monolayer was washed twice with wash media.
(§7) 3- two-fold dilutions of tested sample was made in RPMI medium with 2% serum […]
(§8) 4- 0.1 ml of each dilution was tested in different wells leaving 3 wells as control, receiving only maintenance medium.
(§9) 5- Plate was incubated at 37°C and examined. Cells were checked for any physical signs of toxicity, e.g. partial or complete loss of the monolayer, rounding, shrinkage, […]
(§10) 6- MTT solution was prepared (5mg/ml in PBS) (BIO BASIC CANADA INC).
(§11) 8- 20ul MTT solution were added to each well. Place on a shaking table, 150rpm for 5 minutes, to thoroughly mix the MTT into the media.
(§12) 10) Dump off the media. (dry plate on paper towels to remove residue if necessary. […] 9 ش - ايلعلا هبضهلا - مطقملا / ىسيئرلا لمعملا […]

[2] = test system: Caco-2 cancer cell line; test: MTT cell viability assay, Caco-2; format: cell-based; conditions: for viability at 15.625 µg/mL / viability at 31.25 µg/mL / viability at 62.5 µg/mL / viability at 125 µg/mL / viability at 250 µg/mL / viability at 500 µg/mL / IC50: Homo sapiens, Caco-2
Description: as §1, §2, §3, §4, §5, §6, §7, §8, §9, §10, §11, §12

[3] = test system: Caco-2 cells; test: Annexin V-FITC/PI apoptosis assay by flow cytometry; format: cell-based; parameters: key: % of cells; conditions: annexin-V FITC/PI staining, 24h
Description: In order to determine the percentage of viable, apoptotic and necrotic cells after treatment with our compounds, double-staining with fluorescein isothiocyanate (FITC) and PI was performed. Annexin V-FITC Apoptosis Detection Kit (BioVision, CA, USA) was used. Briefly, cultured Caco-2 were treated with the tested compounds or DMSO for 24h. Cells were then collected by centrifugation at 2000 rpm for 5 min, and the pellet was washed with PBS then centrifuged again at 2000 rpm for 5 min then resuspended in 500μL of the kit’s binding buffer before adding the Annexin V-FITC and PI. The cells were then incubated at room temperature in the dark for 5 min. Annexin V-FITC binding was measured using FACS Calibur flow cytometer (BD biosciences, USA) (Ex = 488 nm, Em = 533 nm, FL1 filter for annexin and FL2 filter for PI).

[4] = Homo sapiens, HepG2, MTT, 48 h, average of triplicates, read-out: IC50 (μM) ± SD HepG2
[5] = Caco2, MTT report T-4-019-5, Conc. ug/ml, read-out: IC50
[6] = MTT, 48 h, average of triplicates, parent compounds and doxorubicin (Table 2), read-out: IC50 (μM) ± SD Caco-2

| SMILES | IC50 [1, 4] [µM] | Toxicity % ([2]; Caco2, 15.625 ug/ml) [%] | Toxicity % ([2]; Caco2, 31.25 ug/ml) [%] | Toxicity % ([2]; Caco2, 62.5 ug/ml) [%] | Toxicity % ([2]; Caco2, 125 ug/ml) [%] | Toxicity % ([2]; Caco2, 250 ug/ml) [%] | Toxicity % ([2]; Caco2, 500 ug/ml) [%] | viability at 15.625 µg/mL ([2]; Caco2, 15.625 ug/ml) [%] | viability at 31.25 µg/mL ([2]; Caco2, 31.25 ug/ml) [%] | viability at 62.5 µg/mL ([2]; Caco2, 62.5 ug/ml) [%] | viability at 125 µg/mL ([2]; Caco2, 125 ug/ml) [%] | viability at 250 µg/mL ([2]; Caco2, 250 ug/ml) [%] | viability at 500 µg/mL ([2]; Caco2, 500 ug/ml) [%] | IC50 [2, 5] [µg/mL] | IC50 [2, 6] [µM] | Apoptosis Total [3] | Early Apoptosis [3] | Late Apoptosis [3] | Necrosis [3] | also measured |
| --- | --- | --- | --- | --- | --- | --- | --- | --- | --- | --- | --- | --- | --- | --- | --- | --- | --- | --- | --- | --- |
| O=C(O)/C=C/c1ccc(O)c(O)c1 [Compound 1, Caffeic acid] | 1030 | 0.09606 | 10.47 | 52.83 | 74.26 | 79.92 | 88.09 | 99.9 | 89.5 | 47.2 | 25.7 | 20.1 | 11.9 | 81.2 | 410 | 11.31 | 3.41 | 5.98 | 1.92 | Toxicity % ([1]; HepG2, 15.625 ug/ml): 0.202%; Toxicity % ([1]; HepG2, 31.25 ug/ml): 0.101%; Toxicity % ([1]; HepG2, 62.5 ug/ml): 0.5051%; Toxicity % ([1]; HepG2, 125 ug/ml): 13.64%; Toxicity % ([1]; HepG2, 250 ug/ml): 72.12%; Toxicity % ([1]; HepG2, 500 ug/ml): 83.94%; viability at 15.625 µg/mL ([1]; Homo sapiens, HepG2, 15.625 ug/ml): 99.8%; viability at 31.25 µg/mL ([1]; Homo sapiens, HepG2, 31.25 ug/ml): 99.9%; viability at 62.5 µg/mL ([1]; Homo sapiens, HepG2, 62.5 ug/ml): 99.5%; viability at 125 µg/mL ([1]; Homo sapiens, HepG2, 125 ug/ml): 86.4%; viability at 250 µg/mL ([1]; Homo sapiens, HepG2, 250 ug/ml): 27.9%; viability at 500 µg/mL ([1]; Homo sapiens, HepG2, 500 ug/ml): 16.1%; IC50 ([1]; Homo sapiens, HepG2, MTT report T-4-019-5, Conc. ug/ml, read-out: IC50): 201 µg/mL |
| COc1cc(/C=C/C(=O)O)ccc1O [Compound 2, Ferulic acid] | 810 ± 2170 | 0.2882 | 9.414 | 22.57 | 70.61 | 88.18 | 84.34 | 99.7 | 90.6 | 77.4 | 29.4 | 11.8 | 15.7 | 96.4 | 410 | 13.22 | 5.17 | 6.48 | 1.57 |  |
